# Data from patent US20210393932A1, “DERMAL PATCHES AND GLASS SWABS FOR APPLICATION OF TOPICAL IMMUNOSENSITIZERS” (Squarex, LLC, priority 2020, published 2021).
# “And” between values parts separate entries of the source, which are not always exact repeats. Equal entries are not always repeated.
# Assay: Drug elution from SADBE dermal patches into pig skin (residual SADBE by HPLC)
# Format: in vivo
# Details: for Percent of SADBE presumed in skin / SADBE area in kimwipe swab / SADBE area, 255 nm, 24 min. (extracted from patch) / net HPLC area of SADBE lost and presumed in skin: 2% SADBE in DMSO
# Description: Squaric acid dibutyl ester (SADBE) at 2% (w/v) concentration in dimethylsulfoxide (DMSO) was added to a skin patch for dermal dosing of SADBE to test for a delayed-type hypersensitivity response or other skin irritation and to test how much SADBE disappears from the patch with different volumes and time of exposure, and is therefore presumed to enter the skin.
# One purpose of this study was to determine the time course of drug elution from the dermal patches into the skin. For that purpose, patches were applied to the skin of pigs and removed 1, 3, 6, or 24 hours later, and then extracted to determine the amount of residual SADBE drug remaining in the patch. The missing SADBE from the amount originally loaded onto the patch is presumed to have transferred into the pig skin.
# The skin patches consisted of a polymer backing layer similar to 3M 9916 polyester nonwoven backing layer with adhesive, 3M 9733 polyester film laminate barrier layer, and Precision Fabrics Group 0700-00010 polyester gauze layer. The gauze was heat sealed to the barrier layer. The gauze patch area was about 3 cm^2.
# Patches were removed from the pigs at the indicated times and immediately the reservoir portion of the patch was cut out and placed in a 50 ml tube with 10 ml of DMSO.
# Immediately after removing the patch, a kimwipe was used to swab the spot on the pig where the patch had been in order to attempt to recover any SADBE that was on the surface of the skin and had not absorbed into the skin. After wiping with the kimwipe, the kimwipe was placed in a separate 50 ml tube containing 10 ml of DMSO.
# The tubes of DMSO with patches or kimwipe were transported to our laboratory, shaken at 200 rpm for 10 minutes, and then the DMSO from each tube was placed in an injection vial and analyzed for SADBE content by HPLC on a C18 column with the program SADBE3-50 ul. SADBE elutes in this program at about 24.0 minutes and absorbs at 255 nm, so the area of the 24.0 min peak at 255 nm was used to quantify SADBE.
# This program is called SADBE3-50 ul on the HPLC, with 50 ul injection. Column: USP L1 (ODS), 250 mm×4.6 mm, 5 um (C18) • Agilent part number 880995-902 Mobile phase: A: 25 mM KH2PO4 (pH5) (not pH adjusted) • B: Methanol Flow rate: 1.0 mL/min
# On Aug. 6, 2018, the first set of patches was placed on 3 pigs. The patches were all held in place on the pigs by an elastic bandage wrapped around the torso of each of the pigs over the patches. The net HPLC area of SADBE lost and presumed in skin is calculated as the area predicted from the 20 ul and 50 ul controls minus the observed HPLC area of SADBE extracted from the test patch that was applied to skin.
# SADBE patch testing on pigs 4 and 5 was done on Aug. 13, 2018. In this case, patches on both pigs were covered with TEGADERM™, and on one pig the TEGADERM™ was further covered by an elastic bandage as on August 6.
# Summary and Conclusions of Drug Elution from Patches: The percentage of SADBE lost from the patch, and therefore presumed to be transferred into the skin, was calculated for each patch and the results for a given volume (volume of 2% SADBE solution loaded onto the patch) and time point (time patch was on the pig) were averaged, broken down by whether an elastic bandage held the patch in place on the pig or not, was averaged.
# [1] = 20 ul on patch, removed at 1 h, elastic bandage (Aug. 6)
# [2] = 20 ul on patch, removed at 3 h, elastic bandage (Aug. 6)
# [3] = 20 ul on patch, removed at 6 h, elastic bandage (Aug. 6)
# [4] = 20 ul on patch, removed at 24 h, elastic bandage (Aug. 6)
# [5] = 20 ul, removed at 3 h, TEGADERM, Ace bandage no (Aug. 13)
# [6] = 20 ul, removed at 3 h, TEGADERM, Ace bandage yes (Aug. 13)
# [7] = 20 ul, removed at 6 h, TEGADERM, Ace bandage no (Aug. 13)
# [8] = 20 ul, removed at 6 h, TEGADERM, Ace bandage yes (Aug. 13)
# [9] = 50 ul on patch, removed at 1 h, elastic bandage (Aug. 6)
# [10] = 50 ul on patch, removed at 3 h, elastic bandage (Aug. 6)
# [11] = 50 ul on patch, removed at 6 h, elastic bandage (Aug. 6)
# [12] = 50 ul on patch, removed at 24 h, elastic bandage (Aug. 6)
# [13] = 50 ul, removed at 3 h, TEGADERM, Ace bandage no (Aug. 13)
# [14] = 50 ul, removed at 3 h, TEGADERM, Ace bandage yes (Aug. 13)
# [15] = 50 ul, removed at 6 h, TEGADERM, Ace bandage no (Aug. 13)
# [16] = 50 ul, removed at 6 h, TEGADERM, Ace bandage yes (Aug. 13)
# [17] = 80 ul on patch, removed at 1 h, elastic bandage (Aug. 6)
# [18] = 80 ul on patch, removed at 3 h, elastic bandage (Aug. 6)
# [19] = 80 ul on patch, removed at 6 h, elastic bandage (Aug. 6)
# [20] = 80 ul on patch, removed at 24 h, elastic bandage (Aug. 6)
smiles,measurement,setting,value
"CCCCOc1c(OCCCC)c(=O)c1=O [SADBE, squaric acid dibutyl ester]",Percent of SADBE presumed in skin,[1],42.8% and 45.8%
same,SADBE area in kimwipe swab,[1],35 and 39
same,"SADBE area, 255 nm, 24 min. (extracted from patch)",[1],1941 and 1838
same,net HPLC area of SADBE lost and presumed in skin,[1],1452 and 1555
same,Percent of SADBE presumed in skin,[2],78.3% and 71.9%
same,SADBE area in kimwipe swab,[2],38 and 44
same,"SADBE area, 255 nm, 24 min. (extracted from patch)",[2],735 and 954
same,net HPLC area of SADBE lost and presumed in skin,[2],2658 and 2439
same,Percent of SADBE presumed in skin,[3],92.2% and 92.8%
same,SADBE area in kimwipe swab,[3],40 and 50
same,"SADBE area, 255 nm, 24 min. (extracted from patch)",[3],265 and 244
same,net HPLC area of SADBE lost and presumed in skin,[3],3128 and 3149
same,Percent of SADBE presumed in skin,[4],94.6% and 95.5%
same,SADBE area in kimwipe swab,[4],19 and 21
same,"SADBE area, 255 nm, 24 min. (extracted from patch)",[4],182 and 151
same,net HPLC area of SADBE lost and presumed in skin,[4],3211 and 3242
same,Percent of SADBE presumed in skin,[5],60.4% and 38.0%
same,"SADBE area, 255 nm, 24 min. (extracted from patch)",[5],1327 and 2076
same,net HPLC area of SADBE lost and presumed in skin,[5],2021 and 1272
same,Percent of SADBE presumed in skin,[6],77.5% and 74.9%
same,"SADBE area, 255 nm, 24 min. (extracted from patch)",[6],753 and 842
same,net HPLC area of SADBE lost and presumed in skin,[6],2595 and 2506
same,Percent of SADBE presumed in skin,[7],88.4% and 70.5%
same,net HPLC area of SADBE lost and presumed in skin,[7],2960 and 2362
same,Percent of SADBE presumed in skin,[8],90.2% and 88.4%
same,"SADBE area, 255 nm, 24 min. (extracted from patch)",[8],328 and 390
same,net HPLC area of SADBE lost and presumed in skin,[8],3020 and 2958
same,Percent of SADBE presumed in skin,[9],38.1% and 43.0%
same,SADBE area in kimwipe swab,[9],78 and 75
same,"SADBE area, 255 nm, 24 min. (extracted from patch)",[9],5108 and 4698
same,net HPLC area of SADBE lost and presumed in skin,[9],3141 and 3551
same,Percent of SADBE presumed in skin,[10],67.2% and 78.9%
same,SADBE area in kimwipe swab,[10],52 and 78
same,"SADBE area, 255 nm, 24 min. (extracted from patch)",[10],2707 and 1741
same,net HPLC area of SADBE lost and presumed in skin,[10],5542 and 6508
same,Percent of SADBE presumed in skin,[11],84.9% and 91.9%
same,SADBE area in kimwipe swab,[11],50 and 45
same,"SADBE area, 255 nm, 24 min. (extracted from patch)",[11],1243 and 666
same,net HPLC area of SADBE lost and presumed in skin,[11],7006 and 7583
same,Percent of SADBE presumed in skin,[12],97.3% and 98.4%
same,SADBE area in kimwipe swab,[12],20 and 22
same,"SADBE area, 255 nm, 24 min. (extracted from patch)",[12],224 and 128
same,net HPLC area of SADBE lost and presumed in skin,[12],8025 and 8121
same,Percent of SADBE presumed in skin,[13],50.8% and 56.9%
same,"SADBE area, 255 nm, 24 min. (extracted from patch)",[13],4058 and 3549
same,net HPLC area of SADBE lost and presumed in skin,[13],4184 and 4693
same,Percent of SADBE presumed in skin,[14],57.7% and 32.1%
same,"SADBE area, 255 nm, 24 min. (extracted from patch)",[14],3484 and 5599
same,net HPLC area of SADBE lost and presumed in skin,[14],4758 and 2643
same,Percent of SADBE presumed in skin,[15],70.2% and 54.9%
same,"SADBE area, 255 nm, 24 min. (extracted from patch)",[15],2454 and 3717
same,net HPLC area of SADBE lost and presumed in skin,[15],5788 and 4525
same,Percent of SADBE presumed in skin,[16],76.4% and 83.3%
same,"SADBE area, 255 nm, 24 min. (extracted from patch)",[16],1949 and 1376
same,net HPLC area of SADBE lost and presumed in skin,[16],6293 and 6866
same,Percent of SADBE presumed in skin,[17],24.6% and 30.2%
same,SADBE area in kimwipe swab,[17],105 and 98
same,"SADBE area, 255 nm, 24 min. (extracted from patch)",[17],9952 and 9208
same,net HPLC area of SADBE lost and presumed in skin,[17],3246 and 3990
same,Percent of SADBE presumed in skin,[18],27.9% and 49.0%
same,"SADBE area, 255 nm, 24 min. (extracted from patch)",[18],9517 and 6734
same,net HPLC area of SADBE lost and presumed in skin,[18],3681 and 6464
same,Percent of SADBE presumed in skin,[19],83.4% and 81.3%
same,"SADBE area, 255 nm, 24 min. (extracted from patch)",[19],2192 and 2471
same,net HPLC area of SADBE lost and presumed in skin,[19],11006 and 10727
same,Percent of SADBE presumed in skin,[20],96.1% and 97.9%
same,SADBE area in kimwipe swab,[20],24 and 20
same,"SADBE area, 255 nm, 24 min. (extracted from patch)",[20],509 and 273
same,net HPLC area of SADBE lost and presumed in skin,[20],12689 and 12925
same,loaded drug transferred into the skin,"by 6 hours, all loading volumes tested, with the elastic bandage",over 80%
same,loaded drug transferred into the skin,by 24 hours,over 95%
same,Average transfer of SADBE into skin,"with elastic bandage, 20 ul of 2% SADBE, patch worn 1 hour",44.3% (n = 2)
same,Average transfer of SADBE into skin,"with elastic bandage, 20 ul of 2% SADBE, patch worn 3 hours",75.6% (n = 4)
same,Average transfer of SADBE into skin,"with elastic bandage, 20 ul of 2% SADBE, patch worn 6 hours",90.9% (n = 4)
same,Average transfer of SADBE into skin,"with elastic bandage, 20 ul of 2% SADBE, patch worn 24 hours",95.1% (n = 2)
same,Average transfer of SADBE into skin,"with elastic bandage, 50 ul of 2% SADBE, patch worn 1 hour",40.6% (n = 2)
same,Average transfer of SADBE into skin,"with elastic bandage, 50 ul of 2% SADBE, patch worn 3 hours",59.0% (n = 4)
same,Average transfer of SADBE into skin,"with elastic bandage, 50 ul of 2% SADBE, patch worn 6 hours",84.1% (n = 4)
same,Average transfer of SADBE into skin,"with elastic bandage, 50 ul of 2% SADBE, patch worn 24 hours",97.9% (n = 2)
same,Average transfer of SADBE into skin,"with elastic bandage, 80 ul of 2% SADBE, patch worn 1 hour",27.4% (n = 2)
same,Average transfer of SADBE into skin,"with elastic bandage, 80 ul of 2% SADBE, patch worn 3 hours",38.4% (n = 2)
same,Average transfer of SADBE into skin,"with elastic bandage, 80 ul of 2% SADBE, patch worn 6 hours",82.3% (n = 2)
same,Average transfer of SADBE into skin,"with elastic bandage, 80 ul of 2% SADBE, patch worn 24 hours",97.0% (n = 2)
same,Average transfer of SADBE into skin,"without elastic bandage, 20 ul of 2% SADBE, patch worn 3 hours",49.2% (n = 2)
same,Average transfer of SADBE into skin,"without elastic bandage, 20 ul of 2% SADBE, patch worn 6 hours",79.5% (n = 2)
same,Average transfer of SADBE into skin,"without elastic bandage, 50 ul of 2% SADBE, patch worn 3 hours",53.9% (n = 2)
same,Average transfer of SADBE into skin,"without elastic bandage, 50 ul of 2% SADBE, patch worn 6 hours",62.6% (n = 2)
